According to PubChem BioAssay (NCI):
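These data come from cells grown in 96-well plates and exposed to compound for 48 hours at five concentrations. Here, GI50 denotes the concentration required for 50% inhibition of growth. At the TGI there is no net growth.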

What was measured:
Test in all cases: NCI-60 cell line screen, 48 h
M14 melanoma = test system: M14 melanoma
NCI-H460 lung = test system: NCI-H460 lung
MDA-MB-231 breast = test system: MDA-MB-231 breast
DU-145 prostate = test system: DU-145 prostate
NCI/ADR-RES ovarian = test system: NCI/ADR-RES ovarian
HOP-92 NSCLC = test system: HOP-92 NSCLC
SF-539 CNS = test system: SF-539 CNS
SNB-19 CNS = test system: SNB-19 CNS
HS 578T breast = test system: HS 578T breast
HL-60(TB) leukemia = test system: HL-60(TB) leukemia

Row | SMILES | GI50 (M14 melanoma) [µM] | TGI (M14 melanoma) [µM] | GI50 (NCI-H460 lung) [µM] | TGI (NCI-H460 lung) [µM] | GI50 (MDA-MB-231 breast) [µM] | TGI (MDA-MB-231 breast) [µM] | GI50 (DU-145 prostate) [µM] | TGI (DU-145 prostate) [µM] | GI50 (NCI/ADR-RES ovarian) [µM] | TGI (NCI/ADR-RES ovarian) [µM] | GI50 (HOP-92 NSCLC) [µM] | TGI (HOP-92 NSCLC) [µM] | GI50 (SF-539 CNS) [µM] | TGI (SF-539 CNS) [µM] | GI50 (SNB-19 CNS) [µM] | TGI (SNB-19 CNS) [µM] | GI50 (HS 578T breast) [µM] | TGI (HS 578T breast) [µM] | GI50 (HL-60(TB) leukemia) [nM] | TGI (HL-60(TB) leukemia) [µM]
1 | COC(=O)c1cc(-c2ccccc2)[nH]c1N/N=C/c1c(Cl)cccc1Cl | 0.24 | 1.37 | 0.319 | 1.25 | 0.474 | 6.85 | 0.322 | 1.14 | 0.22 | 0.77 | 0.609 | 17.5 | 0.218 | 0.605 | 0.435 | 15.3 | 0.221 | 3.5 | 289 | –
2 | Oc1c(C(Nc2ccccc2Br)c2ccccc2)ccc2cccnc12 (centres undefined) | 2.3 | 8.47 | 0.722 | 11.7 | 3.9 | 58.9 | 4.81 | > 100 | 1.44 | 24.5 | 6.51 | 75.9 | 3.65 | 13.5 | 2.33 | > 100 | 10.7 | > 100 | 2340 | 6.25
3 | CCCCC(SC(=S)N1CCCC1)C(=O)Nc1nc(CC(=O)OCC)cs1 (centres undefined) | 32.9 | > 100 | – | – | > 100 | > 100 | 67.3 | > 100 | 37.6 | > 100 | 36.6 | > 100 | 72.4 | > 100 | 65.1 | > 100 | > 100 | > 100 | 25000 | > 100
4 | N#Cc1nc(-c2ccc(F)cc2)oc1S(=O)(=O)N1CCCCC1 | 1.77 | 3.87 | 4.77 | 19.6 | 1.86 | 3.54 | 1.81 | 3.24 | 4.97 | > 100 | 1.76 | 3.37 | 1.73 | 3.12 | 11 | 23 | 2.24 | 5.74 | 2540 | 7.02
5 | O=[N+]([O-])c1cc[n+]([O-])c2ccccc12 | 0.182 | 0.521 | 0.033 | 0.162 | 0.282 | 1.48 | 0.0392 | 0.173 | 0.965 | 4.86 | 0.13 | 0.758 | 0.181 | 0.541 | 0.374 | 2.91 | 0.216 | 0.703 | 1050 | 4.29
6 | [2H]C([2H])([2H])NC(=O)c1nnc(NC(=O)C2CC2)cc1Nc1cccc(-c2ncn(C)n2)c1OC | 9.22 | > 100 | > 100 | > 100 | 19.1 | > 100 | 14.9 | > 100 | 51.3 | > 100 | 17.9 | > 100 | 61.1 | > 100 | > 100 | > 100 | 14.7 | > 100 | 14000 | 82.6
7 | CO/N=C(\COc1ccc2c(=O)c3ccccc3oc2c1)c1ccccc1 | 73.5 | > 100 | 38.9 | > 100 | 25.2 | 57.1 | 22.4 | 61.4 | 77.1 | > 100 | 25.7 | 64 | 19 | 50.6 | 54.5 | > 100 | 30.6 | 89.8 | > 100000 | > 100
8 | c1ccc(-c2nn3c(c2-c2ccnc4cc(OCCN5CCOCC5)ccc24)CCC3)nc1 | 70.8 | > 100 | 33.6 | > 100 | > 100 | > 100 | 75.2 | > 100 | 52.4 | > 100 | > 68.9 | > 100 | > 100 | > 100 | > 100 | > 100 | > 100 | > 100 | > 100000 | > 100
9 | OCCCCC#Cc1ccccc1C#Cc1ccc(O)cc1 | 17.8 | 36 | 20.6 | 48.6 | 7.55 | 21.4 | 16.8 | 33.6 | 17.3 | 35.2 | 17.4 | 36.2 | 17.9 | 35.9 | 19.2 | 35.9 | 26.2 | 77.1 | 18300 | 40.5
10 | COc1cc(/C=C/c2ccc(C)cc2)cc(OC)c1OC | – | 15.3 | – | > 32.8 | – | > 100 | – | 13.7 | – | 4.9 | – | 25.5 | – | 7.07 | – | 38.2 | – | 9.71 | – | 21.9
11 | Cc1ccc(/C=C(\C#N)c2cc3ccccc3n2C)cc1 | 0.268 | > 100 | 0.361 | > 100 | 0.671 | > 100 | 0.469 | > 100 | 0.361 | > 100 | 1.13 | > 100 | 0.294 | 1.02 | 0.414 | > 100 | 0.448 | > 100 | 277 | 2.56
12 | Cc1ccc(S(=O)(=O)Oc2ccc3c4c(c(=O)oc3c2)CCCCCC4)cc1 | > 100 | > 100 | > 100 | > 100 | > 100 | > 100 | > 100 | > 100 | 5.08 | > 100 | 1.34 | > 100 | > 100 | > 100 | > 100 | > 100 | > 100 | > 100 | 7170 | > 100
13 | C#C[C@]1(O)CC[C@H]2[C@@H]3CC=C4c5sc(Nc6cc(F)ccc6F)nc5CC[C@]4(C)[C@H]3CC[C@@]21C | 1.28 | 2.77 | 1.95 | 4.14 | 1.82 | 4.09 | 1.63 | 3.44 | 2.79 | 13.8 | 2.06 | 5.49 | 0.389 | 1.74 | 1.6 | 3.23 | 0.424 | 7.13 | 2540 | 7.96
14 | COC(C)(C)[C@@H](O)[C@H](O)C[C@H](C)C1=C2CC[C@@H]3[C@@]4(C)CC[C@@H](OC(C)=O)C(C)(C)[C@@H]4C[C@@H](OC4OC(COC(C)=O)C(O)C(O)C4O)[C@@]3(C)[C@]2(C)CC1 (some centres undefined) | 12.4 | 25.4 | 9.06 | 25.5 | 11.6 | 23.8 | 15 | 28.5 | 15.2 | 29.4 | 13 | 25.8 | – | – | 12.2 | 25.1 | 11.8 | 28.3 | 3600 | 16
15 | O=[N+]([O-])c1cccc(/C=N/NC2=CS(=O)(=O)C=C2)c1 | – | > 100 | – | > 100 | – | > 100 | – | > 100 | – | > 100 | – | > 100 | – | > 100 | – | > 100 | – | > 100 | – | > 100
16 | Fc1ccc(-c2ncn(C3CCNCC3)c2-c2ccnc(Oc3ccc4c(c3)OCO4)n2)cc1 | 10.4 | > 25 | > 21.7 | > 25 | 10.5 | > 25 | > 25 | > 25 | > 25 | > 25 | 5.21 | > 25 | > 25 | > 25 | > 25 | > 25 | > 12.7 | > 25 | > 21300 | > 25
17 | COc1ccc2c(c1)/C(=C\c1ccncc1)C(=O)N2 | 8.33 | 26 | 6.68 | > 100 | 17.2 | 36.7 | 14.2 | 34.3 | 12.3 | 67.1 | 22.4 | 98 | 2.98 | 11.4 | 19.4 | 61.1 | 27.4 | 82.1 | 6800 | > 100
18 | Nc1ccn(C2CC(F)C(CO)O2)c(=O)n1 (centres undefined) | > 100 | > 100 | > 100 | > 100 | > 100 | > 100 | > 100 | > 100 | > 100 | > 100 | > 100 | > 100 | > 100 | > 100 | > 100 | > 100 | > 100 | > 100 | > 100000 | > 100
19 | COc1ccc2c(c1)nc(NNC(=O)c1cnccn1)c1cccn12 | 0.275 | 3.78 | 0.125 | 4.02 | 0.682 | 3.39 | 0.156 | 6.3 | 0.25 | 3.26 | 0.952 | 3.22 | 0.393 | 2.6 | 0.381 | 10.3 | 1.66 | 11.1 | 257 | –
20 | COc1ccc(-c2c(C)c(C(=O)O)nc(-c3ccc4c(O)c(OC)c5c(c4n3)=NC(C)(C)N=5)c2N)c(O)c1OC | – | 74.6 | – | 17 | – | > 100 | – | > 100 | – | 58 | – | > 100 | – | 35.5 | – | 95 | – | > 100 | – | 37.1
21 | CN(C)Cc1ccc(-c2cc3onc(-c4ccccc4)c3c(=O)n2C)cc1 | – | 30.7 | – | 32.3 | – | > 100 | – | 85.3 | – | > 100 | – | 87.6 | – | 46.8 | – | > 100 | – | 46.2 | – | 4.56
22 | NC(=N\N=C/c1ccc(O)cc1)/C(N)=N\N=C/c1ccc(O)cc1 | 5.56 | > 100 | 13.8 | > 100 | 10.7 | > 100 | 20.2 | > 100 | > 100 | > 100 | 60.3 | > 100 | 3.99 | > 100 | 62.5 | > 100 | > 68.9 | > 100 | 251 | –
23 | COc1cc2c(cc1OC)-c1ncc3c(OC)ccc(OC)c3c1C2 | > 100 | > 100 | 20.9 | > 100 | > 100 | > 100 | 28.1 | > 100 | 23.6 | > 100 | 39.4 | > 100 | 14 | 33.4 | 42.3 | > 100 | 8.05 | 42.4 | – | –
24 | O=C(NCCN1CCOCC1)OCc1nc2nc(Cl)nc(N3CCOCC3)c2[nH]1 | – | – | 3.29 | > 100 | 2.91 | > 100 | 2.37 | 7.79 | 0.566 | > 100 | 1.41 | > 100 | 0.402 | 3.29 | 4.18 | > 100 | 2.85 | > 100 | 1610 | 6.83
25 | COc1c(C(C)=O)c(OCCCCOc2c(C(C)=O)c(OC)c3ccoc3c2OC)c(OC)c2occc12 | 2.55 | > 100 | > 24.3 | > 100 | – | > 100 | > 100 | > 100 | 1.61 | 4.92 | – | – | > 100 | > 100 | > 28.9 | > 100 | > 100 | > 100 | 1850 | 4.02
26 | C/C(=C\c1ccn(-c2ccccc2N)n1)[C@@H]1C[C@@H]2O[C@]2(C)CCC[C@H](C)[C@H](O)[C@@H](C)C(=O)C(C)(C)[C@@H](O)CC(=O)O1 | – | – | 0.0201 | > 50 | 0.247 | > 50 | 0.0564 | 0.402 | 0.154 | 7.21 | 0.146 | > 50 | 0.0334 | 0.236 | 0.184 | > 50 | 0.0658 | 10 | 32.9 | 0.228
